{
  "source": "patent US20080318938A1",
  "about": "“METHODS FOR TREATING ABERRANT CELL PROLIFERATION DISORDERS” (priority 2007, published 2008)",
  "assay_in_all_cases": "Inhibition of cell proliferation (MTT)",
  "format_in_all_cases": "cell-based",
  "key": {"HL-60(TB)": {"system": "HL-60(TB)", "conditions": "Homo sapiens, Leukemia, 48 hours", "experimental": "(§1) Inhibition of cell proliferation is determined in human tumor cell lines. Innoculation density and doubling times for specific cell lines are listed at World Wide Web URL “dtp.nci.nih.gov/docs/misc/common_files/cell_list.html.”\n(§2) • 1. Plate adherent cells the day before starting the experiment in 180 μl growth media (see list hereafter). • 2. Day of experiment, count and plate suspension cells in 180 μl growth media (see list on next page). • 3. Make 10× Compound, vehicle, and chemotherapeutic cocktail • a. Compound (1× to 10×) • i. 10 μM Compound to 100 μM • ii. 3 μM Compound to 30 μM • iii. 1 μM Compound to 10 μM • iv. 0.3 μM Compound to 3 μM • v. 0.1 μM Compound to 1 μM • b. Vehicle • i. PBS, equivalent to the volume used for 10 μM Compound (1× is ˜0.06% PBS) • c. Chemotherapeutic cocktail (1× to 10×): • i. 1 μM Velcade to 10 μM • ii. 100 μM Etoposide to 1 mM • iii. 20 μM Taxol to 200 μM • 4. Add 20 μl of the 10× compound/vehicle/chemotherapeutic cocktail to cells. • 5. Incubate at 37° C., 5% CO2 for 48 hours. • 6. Aspirate media. For suspension cells, spin plate at 1500 RPM for 10 minutes. Use a multichannel pipettor to slowly remove media. • 7. Add 200 μl of Thiazolyl Blue Tetrazolium Bromide (MTT) to each well: 0.863 mg/ml MTT in growth media.\n(§3) Proliferation of several cancer cells was inhibited by compound TA1-1B (which is a particular mixture of the isomers represented by TA1-1A), as shown in the following table (Table 1). The value EC50 is the amount of Compound TA1-1B that results in 50% inhibition of proliferation of the indicated cell type."}, "I 9.2": {"system": "I 9.2", "conditions": "Homo sapiens; I 9.2, Leukemia; 48 hours", "experimental": "as §1, §2, §3"}, "NCI/ADR-RES": {"system": "NCI/ADR-RES", "conditions": "Homo sapiens, Breast, 48 hours", "experimental": "as §1, §2, §3"}, "HH": {"system": "HH", "conditions": "Homo sapiens, Lymphoma, 48 hours", "experimental": "as §1, §2, §3"}, "TK-10": {"system": "TK-10", "conditions": "Homo sapiens; TK-10, Renal; 48 hours", "experimental": "as §1, §2, §3"}, "Reh": {"system": "Reh", "conditions": "Homo sapiens, Leukemia, 48 hours", "experimental": "as §1, §2, §3"}, "U266B1": {"system": "U266B1", "conditions": "Homo sapiens; U266B1, Lymphoma; 48 hours", "experimental": "as §1, §2, §3"}, "P116": {"system": "P116", "conditions": "Homo sapiens; P116, Leukemia; 48 hours", "experimental": "as §1, §2, §3"}, "KG-1": {"system": "KG-1", "conditions": "Homo sapiens; KG-1, Leukemia; 48 hours", "experimental": "as §1, §2, §3"}, "ST486": {"system": "ST486", "conditions": "Homo sapiens; ST486, Lymphoma; 48 hours", "experimental": "as §1, §2, §3"}, "Ramos": {"system": "Ramos", "conditions": "Homo sapiens, Lymphoma, 48 hours", "experimental": "as §1, §2, §3"}, "EKVX": {"system": "EKVX", "conditions": "Homo sapiens, Non Small Cell Lung, 48 hours", "experimental": "as §1, §2, §3"}, "HS 578T": {"system": "HS 578T", "conditions": "Homo sapiens, Breast, 48 hours", "experimental": "as §1, §2, §3"}, "KM12": {"system": "KM12", "conditions": "Homo sapiens; KM12, Colon; 48 hours", "experimental": "as §1, §2, §3"}, "U251": {"system": "U251", "conditions": "Homo sapiens, U-251; U251, CNS; 48 hours", "experimental": "as §1, §2, §3"}, "H9": {"system": "H9", "conditions": "Homo sapiens; H9, Lymphoma; 48 hours", "experimental": "as §1, §2, §3"}, "OVCAR-3": {"system": "OVCAR-3", "conditions": "Homo sapiens; OVCAR-3, Ovarian; 48 hours", "experimental": "as §1, §2, §3"}, "SF-295": {"system": "SF-295", "conditions": "Homo sapiens; SF-295, CNS; 48 hours", "experimental": "as §1, §2, §3"}, "MV-4-11": {"system": "MV-4-11", "conditions": "Homo sapiens, MV4-11; MV-4-11, Leukemia; 48 hours", "experimental": "as §1, §2, §3"}, "U937": {"system": "U937", "conditions": "Homo sapiens, U-937; U937, Lymphoma; 48 hours", "experimental": "as §1, §2, §3"}, "UACC-62": {"system": "UACC-62", "conditions": "Homo sapiens; UACC-62, Melanoma; 48 hours", "experimental": "as §1, §2, §3"}, "MCF7": {"system": "MCF7", "conditions": "Homo sapiens; MCF7, Breast; 48 hours", "experimental": "as §1, §2, §3"}, "COLO 205": {"system": "COLO 205", "conditions": "Homo sapiens; COLO 205, Colon; 48 hours", "experimental": "as §1, §2, §3"}, "NCI-H322M": {"system": "NCI-H322M", "conditions": "Homo sapiens, Non Small Cell Lung, 48 hours", "experimental": "as §1, §2, §3"}, "T-47D": {"system": "T-47D", "conditions": "Homo sapiens, T47D, Breast, 48 hours", "experimental": "as §1, §2, §3"}, "J45-01": {"system": "J45-01", "conditions": "Homo sapiens; J45-01, Leukemia; 48 hours", "experimental": "as §1, §2, §3"}, "MDA-MB-435": {"system": "MDA-MB-435", "conditions": "Homo sapiens; MDA-MB-435, Breast; 48 hours", "experimental": "as §1, §2, §3"}, "SNB-19": {"system": "SNB-19", "conditions": "Homo sapiens; SNB-19, CNS; 48 hours", "experimental": "as §1, §2, §3"}, "MOLT-4": {"system": "MOLT-4", "conditions": "Homo sapiens; MOLT-4, Leukemia; 48 hours", "experimental": "as §1, §2, §3"}, "OVCAR-4": {"system": "OVCAR-4", "conditions": "Homo sapiens; OVCAR-4, Ovarian; 48 hours", "experimental": "as §1, §2, §3"}, "MOLT4": {"system": "MOLT4", "conditions": "Homo sapiens, MOLT-4; MOLT4, Leukemia; 48 hours", "experimental": "as §1, §2, §3"}, "SUDHL4": {"system": "SUDHL4", "conditions": "Homo sapiens, SU-DHL-4; SUDHL4, Lymphoma; 48 hours", "experimental": "as §1, §2, §3"}},
  "data": [
    {"smiles": "CN1CCC[C@H]1CCNC(=O)c1cn2c3c(c(N4CCC(c5cnccn5)C4)c(F)cc3c1=O)Oc1cc3ccccc3cc1-2", "note": "(some centres unmarked) [TA1-1B]", "values": [
      {"measurement": "EC50", "setting": "HL-60(TB)", "result": 1.65, "unit": "µM"},
      {"measurement": "EC50", "setting": "I 9.2", "result": 3.69, "unit": "µM"},
      {"measurement": "EC50", "setting": "NCI/ADR-RES", "result": 1.62, "unit": "µM"},
      {"measurement": "EC50", "setting": "HH", "result": 4.04, "unit": "µM"},
      {"measurement": "EC50", "setting": "TK-10", "result": 3.33, "unit": "µM"},
      {"measurement": "EC50", "setting": "Reh", "result": 1.32, "unit": "µM"},
      {"measurement": "EC50", "setting": "U266B1", "result": 1.62, "unit": "µM"},
      {"measurement": "EC50", "setting": "P116", "result": 1.23, "unit": "µM"},
      {"measurement": "EC50", "setting": "KG-1", "result": 3.97, "unit": "µM"},
      {"measurement": "EC50", "setting": "ST486", "result": 1.28, "unit": "µM"},
      {"measurement": "EC50", "setting": "Ramos", "result": 1.33, "unit": "µM"},
      {"measurement": "EC50", "setting": "EKVX", "result": 5.67, "unit": "µM"},
      {"measurement": "EC50", "setting": "HS 578T", "result": 1.94, "unit": "µM"},
      {"measurement": "EC50", "setting": "KM12", "result": 3.06, "unit": "µM"},
      {"measurement": "EC50", "setting": "U251", "result": 2.68, "unit": "µM"},
      {"measurement": "EC50", "setting": "H9", "result": 2.24, "unit": "µM"},
      {"measurement": "EC50", "setting": "OVCAR-3", "result": 4.28, "unit": "µM"},
      {"measurement": "EC50", "setting": "SF-295", "result": 4.27, "unit": "µM"},
      {"measurement": "EC50", "setting": "MV-4-11", "result": 5.81, "unit": "µM"},
      {"measurement": "EC50", "setting": "U937", "result": 4.54, "unit": "µM"},
      {"measurement": "EC50", "setting": "UACC-62", "result": 4.88, "unit": "µM"},
      {"measurement": "EC50", "setting": "MCF7", "result": 3.46, "unit": "µM"},
      {"measurement": "EC50", "setting": "COLO 205", "result": 0.707, "unit": "µM"},
      {"measurement": "EC50", "setting": "NCI-H322M", "result": 4.28, "unit": "µM"},
      {"measurement": "EC50", "setting": "T-47D", "result": 6.56, "unit": "µM"},
      {"measurement": "EC50", "setting": "J45-01", "result": 1.89, "unit": "µM"},
      {"measurement": "EC50", "setting": "MDA-MB-435", "result": 3.63, "unit": "µM"},
      {"measurement": "EC50", "setting": "SNB-19", "result": 4.63, "unit": "µM"},
      {"measurement": "EC50", "setting": "MOLT-4", "result": 1.21, "unit": "µM"},
      {"measurement": "EC50", "setting": "OVCAR-4", "result": 2.96, "unit": "µM"},
      {"measurement": "EC50", "setting": "MOLT4", "result": 1.22, "unit": "µM"},
      {"measurement": "EC50", "setting": "SUDHL4", "result": 1.34, "unit": "µM"}
    ]}
  ]
}
